Source: patent US11884682B2, “Compounds and their uses as MIF inhibitors” (NANJING IMMUNOPHAGE BIOTECH CO., LTD., priority 2020, dated 2024)

Legend:
BV2 cells = assay: BV2 cell proliferation assay (CCK-8); type: cell-based; conditions: Mus musculus, BV-2, 48 h treatment, CCK-8, top concentration 33.3 μM, mean pIC50 of multiple test results, read-out: BV2 Profileration pIC50 (converted)
From the text: (§1) The assay measures the ability of a compound to inhibit cell proliferation using Cell Counting Kit-8 (CCK-8), which allows sensitive colorimetric assays for the determination of cell viability in cell proliferation and cytotoxicity assays. The highly water-soluble tetrazolium salt, WST-8, is reduced by dehydrogenase activities in cells to give a yellow-color formazan dye, which is soluble in the tissue culture media. The amount of the formazan dye, generated by the activities of dehydrogenases in cells, is directly proportional to the number of living cells.
(§2) The assay was performed based on the instruction of the manufacturer (Dojindo Molecular Technologies Inc., Rockville, MD, USA). To start the assay, BV2 cells were seeded at a density of […] into 96-well plates and treated with test compounds, which were used at a top final assay concentration of 33.3 μM, diluted in assay medium with 1:3 dilutions to produce 10 point concentration responses, for 48 h. After incubation, the CCK-8 solution (10 μl) was added to each well of the plate and the plates were incubated in incubator at 37° C. for 3 h. Absorbance was recorded three times independently using a microplate reader (Bio-Rad Laboratories, Richmond, CA, USA) at 450 nm.
Selected examples were tested in the BV2 cell proliferation. The data mentioned below represents a mean pIC50 value of multiple test results. It is understood that the data illustrated below may have reasonable variation depending on the specific conditions and procedures used by the person conducting the testing.

U251 cell = U251 cell proliferation assay (CCK-8); type: cell-based; conditions: Homo sapiens, U-251; U251 cells; read-out: U251 Profileration pIC50 (converted)
From the text: [The source words this procedure for another cell line and reports this cell line under the same test.] as §1, §2

MIF = MIF (Homo sapiens (Human), UniProt P14174); assay: MIF tautomerase assay using pHPP as substrate; type: biochemical; conditions: cell-free, pHPP substrate 1.5 mM, MIF 3 nM; mean pIC50 of multiple test results
Experimental: Tautomerase Assay Using pHPP as substrate
This assay measured MIF's tautomerase activity in a cell-free system and was based on the determination of initial rates of the MIF-catalyzed conversion of the ketonic into the enolic tautomer of pHPP. This was achieved by spectrophotometric quantification of the complex between borate and the product of the reaction (enolic pHPP). The substrate was prepared by conversion of the enolic pHPP into its ketonic form. To achieve this, 0.5 M pHPP in methanol was diluted 10-fold with 50 mM sodium acetate buffer at pH 6.0, and then the suspension was shaken for 24 h at room temperature in darkness, and finally stored at 4° C. for not more than 1 week, with 5 min sonication being recommended before use.
Assays were performed in small-volume clear-bottom black 96 or 384-well polystyrene plates (Greiner Bio-One). First, 2 μL of the enzyme solution containing 6 nM of MIF in DPBS, 0.025% w/v BSA, and 300 μM CHAPS was dispensed onto sample and negative control wells using Multidrop Combi with metallic tip cassettes (Thermo Fisher Scientific) previously treated with Sigmacote. Then, 2 μL of the same buffer without MIF was dispensed onto positive control wells. The reaction was started by addition of the following to all wells: 2 μL of substrate solution containing 3 mM ketonic pHPP in 200 mM boric acid, 25 mM sodium phosphate, 0.025% w/v BSA, and 300 μM CHAPS at pH 6.0. In order to remove bubbles, the plate was centrifuged in an Allegra 25R centrifuge (Beckman Coulter, Inc., Brea, CA) at 1000 rpm for 2 min at room temperature. Then, the plate was read in an EnVision. Final concentrations of enzyme and substrate were 3 nM and 1.5 mM, respectively. Initial rates were calculated for each well as the slope of the absorbance progress curve.
The data mentioned below represents a mean pIC50 value of multiple test results. It is understood that the data illustrated below may have reasonable variation depending on the specific conditions and procedures used by the person conducting the testing.

Chain of MIF (P14174 2-115): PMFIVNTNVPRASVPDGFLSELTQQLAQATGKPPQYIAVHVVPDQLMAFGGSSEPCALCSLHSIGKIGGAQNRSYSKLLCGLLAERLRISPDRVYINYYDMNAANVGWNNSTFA

Row | SMILES | IC50 (U251 cell) [µM] | Tautomerase Inhibition pIC50 (MIF) | IC50 (BV2 cells) [µM]
1 | O=C1c2ccc(N3CCOCC3)cc2CCN1Cc1nnc(-c2cccs2)o1 [Compound 74, 6-morpholino-2-((5-(thiophen-2-yl)-1,3,4-oxadiazol-2-yl)methyl)-3,4-dihydroisoquinolin-1(2H)-one] | > 1000 | <5 | 25.1
2 | O=C1c2ccc(Br)cc2CCN1Cc1nnc(-c2cccs2)o1 [Compound 73, 6-bromo-2-((5-(thiophen-2-yl)-1,3,4-oxadiazol-2-yl)methyl)-3,4-dihydroisoquinolin-1(2H)-one] | > 1000 | <5 | 23.4
3 | O=C1c2ccccc2CCN1Cc1nnc(-c2cccs2)o1 [Compound 72, 2-((5-(thiophen-2-yl)-1,3,4-oxadiazol-2-yl)methyl)-3,4-dihydroisoquinolin-1(2H)-one] | > 1000 | <5 | 123
4 | CNCCOc1ccc(C(=O)NCc2nnc(-c3cccs3)o2)c(OC)c1 [Compound 80, 2-methoxy-4-(2-(methylamino)ethoxy)-N-((5-(thiophen-2-yl)-1,3,4-oxadiazol-2-yl)methyl)benzamide] | > 1000 |  | 26.3
5 | COc1cc(CC(C)(C)O)ccc1C(=O)NCc1nnc(-c2cccs2)o1 [Compound 84, 4-(2-hydroxy-2-methylpropyl)-2-methoxy-N-((5-(thiophen-2-yl)-1,3,4-oxadiazol-2-yl)methyl)benzamide] | > 1000 | 6.04 | 41.7
6 | COc1cc(OC(C)(C)C(=O)O)ccc1C(=O)Nc1nnc(-c2cccs2)o1 [Compound 21, 2-(3-methoxy-4-((5-(thiophen-2-yl)-1,3,4-oxadiazol-2-yl)carbamoyl)phenoxy)-2-methyl propanoic acid] | > 1000 |  | > 1000
7 | CNCCNc1ccc(C(=O)NCc2nnc(-c3cccs3)o2)c(OC)c1 [Compound 77, 2-methoxy-4-((2-(methylamino)ethyl)amino)-N-((5-(thiophen-2-yl)-1,3,4-oxadiazol-2-yl)methyl)benzamide] | > 1000 | 5.66 | > 1000
8 | COc1cc(OCCOCc2ccccc2)ccc1C(=O)Nc1nnc(-c2cccs2)o1 [Compound 18, 4-(2-(benzyloxy)ethoxy)-2-methoxy-N-(5-(thiophen-2-yl)-1,3,4-oxadiazol-2-yl)benzamide] |  | 7.63 | 
9 | COc1cc(N2CCCC2C(=O)O)ccc1C(=O)Nc1nnc(-c2cccs2)o1 (stereo not drawn) [Compound 30, (3-methoxy-4-((5-(thiophen-2-yl)-1,3,4-oxadiazol-2-yl)carbamoyl)phenyl)proline] |  | 7.90 | 
10 | COc1ccc(C(=O)Nc2ccc(-c3ccco3)nn2)c(OC)c1 [Compound 14, N-(6-(furan-2-yl)pyridazin-3-yl)-2,4-dimethoxybenzamide] |  | 5.91 | 
11 | COc1cc(OCC(=O)O)ccc1C(=O)Nc1nnc(-c2cccs2)o1 [Compound 19, 2-(3-methoxy-4-((5-(thiophen-2-yl)-1,3,4-oxadiazol-2-yl)carbamoyl)phenoxy)acetic acid] | > 1000 |  | > 1000
12 | COc1ccc(C(=O)Nc2nnc(-c3ccc(O)cc3)o2)c(OC)c1 [Compound 4, N-(5-(4-hydroxyphenyl)-1,3,4-oxadiazol-2-yl)-2,4-dimethoxybenzamide] |  | 5.58 | 

Further lines, with some results ahead:

Row | IC50 (U251 cell) [µM] | Tautomerase Inhibition pIC50 (MIF) | SMILES | IC50 (BV2 cells) [µM]
13 | > 1000 | 5.47 | COc1cc(CN2CCOCC2)ccc1C(=O)NCc1nnc(-c2cccs2)o1 [Compound 86, 2-methoxy-4-(morpholinomethyl)-N-((5-(thiophen-2-yl)-1,3,4-oxadiazol-2-yl)methyl)benzamide] | > 1000
14 | 35.5 |  | COc1cc(OC2CCNC2)ccc1C(=O)NCc1nnc(-c2cccs2)o1 (stereo not drawn) [Compound 81, 2-methoxy-4-(pyrrolidin-3-yloxy)-N-((5-(thiophen-2-yl)-1,3,4-oxadiazol-2-yl)methyl)benzamide] | > 1000
15 | > 1000 |  | COc1cc(C(C)(C)O)ccc1C(=O)NCc1nnc(-c2cccs2)o1 [Compound 83, 4-(2-hydroxypropan-2-yl)-2-methoxy-N-((5-(thiophen-2-yl)-1,3,4-oxadiazol-2-yl)methyl)benzamide] | > 1000
16 | > 1000 | 5.90 | COc1cc(N2CCN(C)CC2)ccc1C(=O)NCc1nnc(-c2cccs2)o1 [Compound 59, 2-methoxy-4-(4-methylpiperazin-1-yl)-N-((5-(thiophen-2-yl)-1,3,4-oxadiazol-2-yl)methyl)benzamide] | 40.7
17 | > 1000 | 3.70 | COc1cccc(OC)c1C(=O)NCc1nnc(-c2cccs2)o1 [Compound 46, 2,6-dimethoxy-N-((5-(thiophen-2-yl)-1,3,4-oxadiazol-2-yl)methyl)benzamide] | > 1000
18 | > 1000 | 5.53 | COc1cc(OC2CCN(C)C2)ccc1C(=O)NCc1nnc(-c2cccs2)o1 (stereo not drawn) [Compound 82, 2-methoxy-4-((1-methylpyrrolidin-3-yl)oxy)-N-((5-(thiophen-2-yl)-1,3,4-oxadiazol-2-yl)methyl)benzamide] | > 1000
19 | > 1000 | 5.20 | COc1cc(CN2CCCCC2)ccc1C(=O)NCc1nnc(-c2cccs2)o1 [Compound 85, 2-methoxy-4-(piperidin-1-ylmethyl)-N-((5-(thiophen-2-yl)-1,3,4-oxadiazol-2-yl)methyl)benzamide] | > 1000
20 | > 1000 | 6.29 | COc1cc(N2CCOCC2)ccc1C(=O)NCc1nnc(-c2cccs2)o1 [Compound 51, 2-methoxy-4-morpholino-N-((5-(thiophen-2-yl)-1,3,4-oxadiazol-2-yl)methyl)benzamide] | 13.2
21 |  | <5 | COc1cc(N2CCOCC2)ccc1C(=O)NC(C)(C)c1nnc(-c2cccs2)o1 [Compound 65, 2-methoxy-4-morpholino-N-(2-(5-(thiophen-2-yl)-1,3,4-oxadiazol-2-yl)propan-2-yl)benzamide] | 
22 | > 1000 |  | COc1cc(OCCN2CCOCC2)ccc1C(=O)NCc1nnc(-c2cccs2)o1 [Compound 69, 2-methoxy-4-(2-morpholinoethoxy)-N-((5-(thiophen-2-yl)-1,3,4-oxadiazol-2-yl)methyl)benzamide] | 44.7
23 | > 1000 |  | COc1cc(NCCO)ccc1C(=O)NCc1nnc(-c2cccs2)o1 [Compound 79, 4-((2-hydroxyethyl)amino)-2-methoxy-N-((5-(thiophen-2-yl)-1,3,4-oxadiazol-2-yl)methyl)benzamide] | > 1000
24 |  | <5 | COc1c(C(=O)NCc2nnc(-c3cccs3)o2)cccc1N1CCOCC1 [Compound 54, 2-methoxy-3-morpholino-N-((5-(thiophen-2-yl)-1,3,4-oxadiazol-2-yl)methyl)benzamide] | 
25 |  | 4.79 | COc1cc(N2CCOCC2)ccc1C(=O)NCc1nnc(-c2ccc(Cl)s2)o1 [Compound 64, N-((5-(5-chlorothiophen-2-yl)-1,3,4-oxadiazol-2-yl)methyl)-2-methoxy-4-morpholinobenzamide] | 
26 |  | <5 | COc1cc(N2CCOCC2)ccc1C(=O)NCc1nnc(-c2ccns2)o1 [Compound 61, N-((5-(isothiazol-5-yl)-1,3,4-oxadiazol-2-yl)methyl)-2-methoxy-4-morpholinobenzamide] | 
27 | > 1000 |  | COc1cc(N2CCC(O)C2)ccc1C(=O)NCc1nnc(-c2cccs2)o1 (stereo not drawn) [Compound 78, 4-(3-hydroxypyrrolidin-1-yl)-2-methoxy-N-((5-(thiophen-2-yl)-1,3,4-oxadiazol-2-yl)methyl)benzamide] | 79.4
